Earlier results, collected in publication PMC6856260 (Clinical Pharmacokinetics, 2019).
Read-outs that look alike come from different tables or passages of the source.

Experiments:
[1] = co-formulated with 5-CNAC
[2] = post-dose fasting periods of 15, 30, 60 and 120 min; oral, co-formulated with SNAC

reduction of exposure of salmon calcitonin ([1]; meal 10 min after oral dosing versus 60 min post-dose fasting) | reduction of exposure of salmon calcitonin ([1]; meal 10 min after oral dosing versus 4 h post-dose fasting) [%] | Substance | effect of increasing post-dose fasting period on exposure (in words) [2]
up to 30% | 41 | salmon calcitonin | 
 |  | semaglutide: oral semaglutide co-formulated with SNAC | increasing semaglutide exposure
